Data from ChEMBL document CHEMBL3784936, “Classification of matching molecular series on the basis of SAR phenotypes and structural relationships” (Medchemcomm, 2016).

Tests used:
Oxytocin receptor = target: T1, Oxytocin receptor (Homo sapiens, UniProt P30559); assay: Inhibition of oxytocin receptor (unknown origin)
T1 sequence (P30559 whole entry): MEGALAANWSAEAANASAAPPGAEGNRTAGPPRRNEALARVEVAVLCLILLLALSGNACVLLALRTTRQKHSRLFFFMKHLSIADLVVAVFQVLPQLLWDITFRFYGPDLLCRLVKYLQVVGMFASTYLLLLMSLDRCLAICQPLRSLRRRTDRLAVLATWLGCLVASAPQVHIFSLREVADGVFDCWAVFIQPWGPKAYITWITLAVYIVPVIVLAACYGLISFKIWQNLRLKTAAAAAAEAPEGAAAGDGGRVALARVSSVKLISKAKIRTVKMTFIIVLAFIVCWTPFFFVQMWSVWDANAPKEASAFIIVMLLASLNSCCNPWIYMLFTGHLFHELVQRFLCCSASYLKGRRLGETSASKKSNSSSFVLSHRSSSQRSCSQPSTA

Adenosine receptor A3 = target: T2, Adenosine receptor A3 (Homo sapiens, UniProt P0DMS8); assay: Inhibition of adenosine A3 receptor (unknown origin)
T2 sequence (P0DMS8 whole entry): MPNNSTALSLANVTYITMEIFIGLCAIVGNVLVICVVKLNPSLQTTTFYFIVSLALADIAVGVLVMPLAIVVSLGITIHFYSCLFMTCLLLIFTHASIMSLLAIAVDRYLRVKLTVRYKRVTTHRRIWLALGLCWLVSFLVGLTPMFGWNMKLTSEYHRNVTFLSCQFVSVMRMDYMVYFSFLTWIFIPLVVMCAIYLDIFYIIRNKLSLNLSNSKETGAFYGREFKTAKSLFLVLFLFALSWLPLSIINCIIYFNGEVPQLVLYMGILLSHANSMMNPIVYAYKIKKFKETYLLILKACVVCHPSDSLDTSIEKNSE

Row | Ki (Oxytocin receptor) [nM] | SMILES | Ki (Adenosine receptor A3) [nM]
1 | 17.8 | CCCCOc1ccc(S(=O)(=O)N(CC(=O)N/N=C2\C(=O)Nc3ccccc32)c2ccc(Cl)cc2)cc1 | –
2 | – | Nc1ncnc2c1ncn2[C@@H]1O[C@H](C(=O)NC2CC2)[C@@H](O)[C@H]1O | 178
